The values below come from patent US20260085082A1, “KDM1A INHIBITORS FOR THE TREATMENT OF DISEASE” (Imago Biosciences, Inc., priority 2022, published 2026).

Assay [1] deals with LSD1 (Homo sapiens, UniProt O60341). Put plainly: LSD1 10-dose IC50 fluorescence coupling enzyme assay (HRP/Amplex Red, resorufin). In kind it is biochemical. The conditions noted are these: 10 M histone H3(1-21)K4me2 peptide substrate; 3-fold serial dilution in duplicate starting at 100 μM. Here is the method:
Compounds were tested in a 10-dose IC50 mode fluorescence coupling enzyme assay with 3-fold serial dilution in duplicate starting at 100 μM. The production of FAD-dependent H2O2 as a result of demethylase activity of LSD1 on […] histone H3(1-21)K4me2 peptide substrate was measured by coupling with HRP and Amplex Red to yield resorufin (fluorescence measured at Ex/Em=535/590 nm on EnVision, Perkin Elmer).

Assay [2] concerns MV4;11 cells. Put plainly: Cell Titer-Glo Luminescent Cell Viability Assay, cell growth inhibition against MV4;11 cells. In kind it is cell-based. An outline of the steps: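 MV4;11 cells seeded at 3750/well, exposed to a 10-point 4-fold dilution series (0–50 μM); on Day 5 cells were split into fresh compound and media and grown to Day 10. Viability by CellTiter-Glo ATP luminescence at Day 5 and Day 10; IC50 from dose curves.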
(In ATP-based viability assays light output follows the ATP content of the culture.)

The mark [3] stands for this setting: Homo sapiens, MV4-11, MV4;11 cells, Day 10 (re-seeded at Day 5 with fresh compound), 10-point dose curve 0 to 50 μM, read-out: Cell Titer Glo IC50 (10 d).
Setting [4] is: Homo sapiens, MV4-11, 120 h, MV4;11 cells, Day 5, 10-point dose curve 0 to 50 μM, read-out: Cell Titer Glo IC50 (5 d).

Structures are written as SMILES. Like-named read-outs stand apart in the source and are kept apart here.

In general, IC50 refers to the concentration that gives 50% inhibition. On to `N#Cc1ccc(-c2cc(C(=O)N3CCC[C@@H](N)C3)nn2-c2ccc(N3CCCC3)cc2)cc1F` [Example 62, (R)-4-(3-(3-aminopiperidine-1-carbonyl)-1-(4-(pyrrolidin-1-yl)phenyl)-1H-pyrazol-5-yl)-2-fluorobenzonitrile 2,2,2-trifluoroacetate], for which the IC50 in assay [1] and in assay [2] (setting [3]) was under 500 nM each time.
In the case of `Cc1cc(CCn2nc(C(=O)N3CCC[C@@H](N)C3)cc2-c2ccc(C#N)c(F)c2)on1` [Example 38, (R)-4-(3-(3-aminopiperidine-1-carbonyl)-1-(2-(3-methylisoxazol-5-yl)ethyl)-1H-pyrazol-5-yl)-2-fluorobenzonitrile], the half-maximal inhibitory concentration (IC50) is over 10000 nM in assay [1] and 1000 to 10000 nM in assay [2] (setting [4]).
Regarding `Cc1ccc(-n2nc(-c3ccc(C#N)c(F)c3)cc2C(=O)NC2CCNC2)cc1` (centres unmarked) [Example 15, 3-(4-Cyano-3-fluorophenyl)-N-(pyrrolidin-3-yl)-1-(p-tolyl)-1H-pyrazole-5-carboxamide], the half-inhibitory concentration (IC50) is 500 to 1000 nM in assay [1] and 1000 to 10000 nM in assay [2] (setting [4]).
Regarding `COP(=O)(OC)OCCCOC1CCN(c2ccc(-n3nc(C(=O)N4CCC[C@@H](N)C4)cc3-c3ccc(C#N)c(F)c3)cc2)CC1` [Example 70, (R)-3-((1-(4-(3-(3-aminopiperidine-1-carbonyl)-5-(4-cyano-3-fluorophenyl)-1H-pyrazol-1-yl)phenyl)piperidin-4-yl)oxy)propyl dimethyl phosphate 2,2,2-trifluoroacetate], the IC50 in assay [1] is under 500 nM; in assay [2] (Homo sapiens, MV4;11 cells, Day 10 (re-seeded at Day 5 with fresh compound), 10-point dose curve 0 to 50 μM, read-out: Cell Titer Glo IC50 (10 d)), under 500 nM.
As to `COc1ccc(-n2nc(C(=O)N[C@@H]3CCC[C@H](N)C3)cc2-c2ccc(C#N)c(F)c2)cc1` [Example 28, N-((1R,3S)-3-aminocyclohexyl)-5-(4-cyano-3-fluorophenyl)-1-(4-methoxyphenyl)-1H-pyrazole-3-carboxamide 2,2,2-trifluoroacetate], the half-maximal inhibitory concentration (IC50) in assay [1] lay within 500 to 1000 nM; in assay [2] (setting [4]), 1000 to 10000 nM.
As to `Cn1cc(-c2ccc(-n3nc(C(=O)N4CCC[C@@H](N)C4)cc3-c3ccc(C#N)c(F)c3)cc2)cn1` [Example 66, (R)-4-(3-(3-aminopiperidine-1-carbonyl)-1-(4-(1-methyl-1H-pyrazol-4-yl)phenyl)-1H-pyrazol-5-yl)-2-fluorobenzonitrile 2,2,2-trifluoroacetate], the IC50 in assay [1] and in assay [2] (setting [3]) was under 500 nM in each case.
On to `Cn1cc2cc(-n3nc(C(=O)N4CCC[C@H](N)C4)cc3-c3ccc(C#N)c(F)c3)ccc2n1` [Example 44, (S)-4-(3-(3-aminopiperidine-1-carbonyl)-1-(2-methyl-2H-indazol-5-yl)-1H-pyrazol-5-yl)-2-fluorobenzonitrile 2,2,2-trifluoroacetate], for which the concentration for half-maximal inhibition (IC50) in assay [1], in assay [2] (setting [4]) and in assay [2] (setting [3]) was under 500 nM in each case.
Turning to `N#Cc1ccc(-c2cc(C(=O)N3CCC[C@@H](N)C3)nn2-c2ccc(N3CCC(OCCO)CC3)cc2)cc1F` [Example 45, (R)-4-(3-(3-aminopiperidine-1-carbonyl)-1-(4-(4-(2-hydroxyethoxy)piperidin-1-yl)phenyl)-1H-pyrazol-5-yl)-2-fluorobenzonitrile], the concentration for half-maximal inhibition (IC50) in assay [1] and in assay [2] (setting [3]) was under 500 nM throughout.
For the compound `CN1CCN(c2ccc(-n3nc(C(=O)N4CCC[C@@H](N)C4)cc3-c3ccc(C#N)c(F)c3)cc2)CC1` [Example 60, (R)-4-(3-(3-aminopiperidine-1-carbonyl)-1-(4-(4-methylpiperazin-1-yl)phenyl)-1H-pyrazol-5-yl)-2-fluorobenzonitrile], the results for the IC50 in assay [1], in assay [2] (setting [4]) and in assay [2] (setting [3]) were under 500 nM, 500 to 1000 nM and under 500 nM, respectively.
Consider `Cc1ccc(-n2nc(-c3ccc(C#N)c(F)c3)cc2C(=O)N2CCC(N)CC2)cc1` [Example 13, 4-(5-(4-Aminopiperidine-1-carbonyl)-1-(p-tolyl)-1H-pyrazol-3-yl)-2-fluorobenzonitrile], for which the half-inhibitory concentration (IC50) in assay [1] and in assay [2] (setting [4]) was 1000 to 10000 nM throughout.
Regarding `N#Cc1ccc(-c2cc(C(=O)N3CCC[C@@H](N)C3)nn2-c2ccc(N3CCC(C#N)CC3)cc2)cc1F` [Example 48, (R)-1-(4-(3-(3-aminopiperidine-1-carbonyl)-5-(4-cyano-3-fluorophenyl)-1H-pyrazol-1-yl)phenyl)piperidine-4-carbonitrile 2,2,2-trifluoroacetate], the half-maximal inhibitory concentration (IC50) in assay [1] and in assay [2] (setting [3]) was under 500 nM each time.
Regarding `COc1ccc(-n2nc(C(=O)N3CCC[C@H](N)C3)cc2-c2ccc(C#N)c(F)c2)cc1F` [Example 37, (S)-4-(3-(3-aminopiperidine-1-carbonyl)-1-(3-fluoro-4-methoxyphenyl)-1H-pyrazol-5-yl)-2-fluorobenzonitrile], the IC50 in assay [1] was 500 to 1000 nM; in assay [2] (setting [4]), 1000 to 10000 nM.
With `COC1CCN(c2ccc(-n3nc(C(=O)N4CCCC(N)C4)cc3-c3ccc(C#N)c(F)c3)cc2)CC1` (stereo in doubt) [Example 64, (R)-4-(3-(3-aminopiperidine-1-carbonyl)-1-(4-(4-methoxypiperidin-1-yl)phenyl)-1H-pyrazol-5-yl)-2-fluorobenzonitrile 2,2,2-trifluoroacetate], the IC50 is under 500 nM in assay [1]; under 500 nM in assay [2] (MV4;11 cells, Day 5, 10-point dose curve 0 to 50 μM, 2,2,2-trifluoroacetate, read-out: Cell Titer Glo IC50 (5 d)); under 500 nM in assay [2] (MV4;11 cells, Day 10 (re-seeded at Day 5 with fresh compound), 10-point dose curve 0 to 50 μM, read-out: Cell Titer Glo IC50 (10 d)).
